Values after ≈ are worked out from the molar mass of the structure shown.
What was measured:
Assay type in all cases: functional
[1] = tested on: Saccharomyces cerevisiae; test: Antifungal activity against recombinant Saccharomyces cerevisiae Y2767 overexpressing CauErg11 assessed as inhibition of fungal growth incubated for 48 hrs by CLSI based broth microdilution assay
[2] = tested on: Saccharomyces cerevisiae; test: Antifungal activity against recombinant Saccharomyces cerevisiae Y2462 overexpressing ScErg11/ScNcp1 assessed as inhibition of fungal growth incubated for 48 hrs by CLSI based broth microdilution assay
[3] = tested on: Saccharomyces cerevisiae; test: Antifungal activity against recombinant Saccharomyces cerevisiae Y2711 overexpressing CnErg11 assessed as inhibition of fungal growth incubated for 48 hrs by CLSI based broth microdilution assay
[4] = tested on: Saccharomyces cerevisiae; test: Antifungal activity against recombinant Saccharomyces cerevisiae Y2301 overexpressing ScErg11 Y140F mutant assessed as inhibition of fungal growth incubated for 48 hrs by CLSI based broth microdilution assay
[5] = tested on: Saccharomyces cerevisiae; test: Antifungal activity against recombinant Saccharomyces cerevisiae Y2513 overexpressing ScErg11 Y140H mutant assessed as inhibition of fungal growth incubated for 48 hrs by CLSI based broth microdilution assay
[6] = tested on: Saccharomyces cerevisiae; test: Antifungal activity against recombinant Saccharomyces cerevisiae Y2768 overexpressing CauErg11 T132F mutant assessed as inhibition of fungal growth incubated for 48 hrs by CLSI based broth microdilution assay
[7] = tested on: Saccharomyces cerevisiae; test: Antifungal activity against recombinant Saccharomyces cerevisiae Y2459 overexpressing CaErg11/CaCpr assessed as inhibition of fungal growth incubated for 48 hrs by CLSI based broth microdilution assay
[8] = tested on: Saccharomyces cerevisiae; test: Antifungal activity against recombinant Saccharomyces cerevisiae Y2411 overexpressing ScErg11 assessed as inhibition of fungal growth incubated for 48 hrs by CLSI based broth microdilution assay
[9] = tested on: Saccharomyces cerevisiae; test: Antifungal activity against recombinant Saccharomyces cerevisiae Y2766 overexpressing CauCdr1 assessed as inhibition of fungal growth incubated for 48 hrs by CLSI based broth microdilution assay
[10] = tested on: Saccharomyces cerevisiae; test: Antifungal activity against recombinant Saccharomyces cerevisiae Y2374 overexpressing CgErg11 assessed as inhibition of fungal growth incubated for 48 hrs by CLSI based broth microdilution assay
[11] = tested on: Saccharomyces cerevisiae; test: Antifungal activity against recombinant Saccharomyces cerevisiae Y570 overexpressing CaCdr1 assessed as inhibition of fungal growth incubated for 48 hrs by CLSI based broth microdilution assay
[12] = tested on: Saccharomyces cerevisiae; test: Antifungal activity against recombinant Saccharomyces cerevisiae Y2721 overexpressing CpErg11/CpCpr assessed as inhibition of fungal growth incubated for 48 hrs by CLSI based broth microdilution assay
[13] = tested on: Saccharomyces cerevisiae; test: Antifungal activity against recombinant Saccharomyces cerevisiae Y525 overexpressing CaMdr1 assessed as inhibition of fungal growth incubated for 48 hrs by CLSI based broth microdilution assay
[14] = tested on: Saccharomyces cerevisiae; test: Antifungal activity against recombinant Saccharomyces cerevisiae Y2300 overexpressing ScErg11 assessed as inhibition of fungal growth incubated for 48 hrs by CLSI based broth microdilution assay
[15] = tested on: Saccharomyces cerevisiae; test: Antifungal activity against recombinant Saccharomyces cerevisiae Y2769 overexpressing CauErg11 K143R mutant assessed as inhibition of fungal growth incubated for 48 hrs by CLSI based broth microdilution assay
[16] = tested on: Saccharomyces cerevisiae; test: Antifungal activity against recombinant Saccharomyces cerevisiae Y2716 overexpressing CpErg11 Y132F mutant/ CpCpr assessed as inhibition of fungal growth incubated for 48 hrs by CLSI based broth microdilution assay
[17] = tested on: Saccharomyces cerevisiae; test: Antifungal activity against recombinant Saccharomyces cerevisiae Y2765 overexpressing CauMdr1 assessed as inhibition of fungal growth incubated for 48 hrs by CLSI based broth microdilution assay
[18] = tested on: Candida tropicalis; test: Potency index, ratio of ravuconazole MIC to test compound MIC for antifungal activity against Candida tropicalis 8915 assessed as inhibition of fungal growth incubated for 48 hrs by CLSI based broth microdilution assay
[19] = tested on: Candida albicans; test: Antifungal activity against Candida albicans 10231 assessed as inhibition of fungal growth incubated for 48 hrs by CLSI based broth microdilution assay
[20] = tested on: Candida albicans; test: Antifungal activity against Candida albicans SC5314 assessed as inhibition of fungal growth incubated for 48 hrs by CLSI based broth microdilution assay
[21] = tested on: [Candida] auris; test: Antifungal activity against fluconazole-resistant Candida auris 919 assessed as inhibition of fungal growth incubated for 48 hrs by CLSI based broth microdilution assay; details: Candidozyma auris
[22] = tested on: Nakaseomyces glabratus; test: Antifungal activity against Candida glabrata 537 assessed as inhibition of fungal growth incubated for 48 hrs by CLSI based broth microdilution assay
[23] = tested on: Candida tropicalis; test: Antifungal activity against Candida tropicalis 8915 assessed as inhibition of fungal growth incubated for 48 hrs by CLSI based broth microdilution assay
[24] = tested on: Candida albicans; test: Antifungal activity against fluconazole-resistant Candida albicans 901 assessed as inhibition of fungal growth incubated for 48 hrs by CLSI based broth microdilution assay
[25] = tested on: [Candida] auris; test: Antifungal activity against fluconazole-resistant Candida auris 918 assessed as inhibition of fungal growth incubated for 48 hrs by CLSI based broth microdilution assay; details: Candidozyma auris
[26] = tested on: Candida parapsilosis; test: Antifungal activity against Candida parapsilosis 22019 assessed as inhibition of fungal growth incubated for 48 hrs by CLSI based broth microdilution assay; details: Lodderomyces parapsilosis
[27] = tested on: Pichia kudriavzevii; test: Antifungal activity against Candida krusei 4996 assessed as inhibition of fungal growth incubated for 48 hrs by CLSI based broth microdilution assay
[28] = tested on: [Candida] auris; test: Antifungal activity against fluconazole-resistant Candida auris 891 assessed as inhibition of fungal growth incubated for 48 hrs by CLSI based broth microdilution assay; details: Candidozyma auris
[29] = tested on: Candida albicans; test: Antifungal activity against fluconazole-resistant Candida albicans 904 assessed as inhibition of fungal growth incubated for 48 hrs by CLSI based broth microdilution assay
[30] = tested on: Candida tropicalis; test: Potency index, ratio of fluconazole MIC to test compound MIC for antifungal activity against Candida tropicalis 8915 assessed as inhibition of fungal growth incubated for 48 hrs by CLSI based broth microdilution assay
[31] = tested on: Cryptococcus neoformans; test: Antifungal activity against Cryptococcus neoformans 32609 assessed as inhibition of fungal growth incubated for 72 hrs by CLSI based broth microdilution assay

## CC[C@@H]([C@H](C)O)n1ncn(-c2ccc(N3CCN(c4ccc(OC[C@@H]5CO[C@@](Cn6cncn6)(c6ccc(F)cc6F)C5)cc4)CC3)cc2)c1=O [POSACONAZOLE]
[1]
  MIC: 0.063 µg/mL
[2]
  MIC: 0.125 µg/mL
[3]
  MIC: 0.0313 µg/mL
[4]
  MIC: 2 µg/mL
[5]
  MIC: 2 µg/mL
[6]
  MIC: 1 µg/mL
[7]
  MIC: 0.125 µg/mL
[8]
  MIC: 0.5 µg/mL
[9]
  MIC: 0.125 µg/mL
[10]
  MIC: 0.125 µg/mL
[11]
  MIC: 8 µg/mL
[12]
  MIC: 0.25 µg/mL
[13]
  MIC: 0.125 µg/mL
[14]
  MIC: 1 µg/mL
[15]
  MIC: 1 µg/mL
[16]
  MIC: 1 µg/mL
[17]
  MIC: 0.125 µg/mL

## C[C@@H](OCc1ccn(Cc2ccc(Br)cc2)n1)[C@](O)(Cn1cncn1)c1ccc(F)cc1F
[18]
  Ratio: 32
[19]
  MIC: ≤ 0.125 µg/mL
[20]
  MIC: ≤ 0.125 µg/mL
[21]
  MIC: 8 µg/mL (≈ 15.4 µM)
[22]
  MIC: ≤ 0.125 µg/mL
[23]
  MIC: 0.25 µg/mL (≈ 0.482 µM)
[24]
  MIC: 32 µg/mL (≈ 61.7 µM)
[25]
  MIC: 8 µg/mL (≈ 15.4 µM)
[26]
  MIC: 0.25 µg/mL (≈ 0.482 µM)
[27]
  MIC: 2 µg/mL (≈ 3.86 µM)
[28]
  MIC: 16 µg/mL (≈ 30.9 µM)
[29]
  MIC: 16 µg/mL (≈ 30.9 µM)
[30]
  Ratio: 256
[31]
  MIC: 0.25 µg/mL (≈ 0.482 µM)

Reference: ChEMBL document CHEMBL5579851, “Synthesis and antifungal evaluation of novel triazole derivatives bearing a pyrazole-methoxyl moiety” (Eur J Med Chem, 2024)
